Non-standard residues stand in square brackets, D forms with d. No end group written: not given here. Cha = N[C@@H](CC1CCCCC1)C(=O)O

The subject of one data set is plasma. Put plainly: Blood coagulation test (aPTT), normal plasma. To be noted: peptide solution mixed with plasma, 37° C., control without peptides around 40 seconds. The protocol:
In one embodiment, an application of the peptide-based hemostatic material in the present disclosure to the bleeding wound produces a coagulation time of less than 40 seconds. The coagulation time of normal plasma (without self-assembling peptides) and plasma with IVZK (SEQ ID NO. 2) or IVFK (SEQ ID NO. 1) hydrogels as initiators for clot formation was compared using a partial thromboplastin time (aPTT) test. The hemostatic properties of the peptides were evaluated by measuring the coagulation time after mixing the peptide solution with plasma. […] The coagulation time of the control (without self-assembling peptides) was around 40 seconds, which is within the normal range.
The aPTT test was performed in a coagulation meter MC 10 PLUS (MERLIN® Medical, Germany). First, 100 μL of plasma was incubated at 37° C., followed by adding 100 μL of a-PTT reagent. Then, the plasma-reagent mixture was incubated at 37° C. for 5 minutes (activation time). Finally, 100 μL of pre-warmed […] calcium chloride was added and time clot formation was recorded. In experimental group, 150 μL of plasma was pre-warmed and then 150 μL of peptide solution was added and the time was recorded. Each test was conducted at least three times.

A short description of data set [1]: Determination of gelation time by coagulation meter. The settings on record: for gelation time, effect of temperature: 37° C. versus 25° C., FIGS. 1 and 2; for onset of gelation: different temperatures, different concentrations, FIGS. 3 and 4. The class given is physicochemical. The protocol: In one embodiment, the nanofiber formation of the self-assembling peptides is affected by concentration of the peptide solution (Luo, Z., S. Wang, and S. Zhang, Fabrication of self-assembling D-form peptide nanofiber scaffold d-EAK16 for rapid hemostasis. Biomaterials, 2011. 32(8): p. 2013-2020). The gelation time of different peptides at various concentrations was recorded using a coagulation meter. FIGS. 1 and 2 illustrate the gelation time of two peptides with different concentrations at two different temperatures (25° C., 37° C.). As shown in both FIGS. 1 and 2, as the concentration of peptide increases, the required time for gelation decreases.
In one embodiment, the peptide gelation is impacted by temperature. […] This effect can be explained by the increasing of kinetic energy which is helps in bond formation within molecules enabling the peptide solution to form gels faster at 37° C. than at 25° C.
In one embodiment, the gelation time is impacted by temperature.
In this study, onset of gelation was assessed using coagulation meter MC 10 PLUS (MERLIN® Medical, Germany). The peptide solution at different concentrations was used and checked under various conditions. For the coagulation experiment, 300 μl of peptide solution was added into a tube and placed in the preheated position for 50 seconds before adding 30 μl of PBS. The time at which the gel formed was then recorded. The temperature was chosen in advance and all solutions were incubated at the desired temperature before conducting the measurements.

A further data set relates to Human platelets. Description: Surface coating and platelet adhesion. To be noted: fluorescence microscopy images, FIG. 23; for platelet adhesion: coated surface. The class given is cell-based. The text has this:
In one embodiment, the self-assembling peptides induce platelet adhenrance. In a preferred embodiment, the self-assembling peptides induce more platelet adhenrance than collagen. One important factor for accelerating blood coagulation could be by promoting the recruitment and adherence of platelets to the site of injury as these processes play a critical role in primary hemostasis (O'Shaughnessy, D. and R. Gill, 19 Cardiothoracic surgery. Practical Hemostasis and Thrombosis, 2009: p. 194). Therefore, platelet adherence induced by peptide hydrogels, type I collagen (positive control), and bovine serum albumin (BSA) (negative comtrol) was tested and compared. […] The scale bar in FIG. 23 is 100 μm. […] The level of platelet adhesion induced by peptide hydrogels, type I collagen (positive control) was also quantified, as shown in FIG. 24. According to FIG. 24, the level of platelet adhesion induced by peptide hydrogels is even higher than that of collagen. […] Therefore, our peptides induced platelet adhesion, a process that may help trigger the coagulation system.
The procedure was done as described previously (Chen, C., et al., Hydrogelation of the short self-assembling peptide 13QGK regulated by transglutaminase and use for rapid hemostasis. ACS applied materials & interfaces, 2016. 8(28): p. 17833-17841). Briefly, for surface coating. 200 μL of 6 mM IVFK (SEQ ID NO. 1), 6 mM IVZK (SEQ ID NO. 2), 0.5% (w/v), BSA (PBS, pH 7.4), and 0.01 mg/mL type I collagen (PBS, pH 7.4) solutions were added to the wells of a 96-well black plate and incubated at 4° C. for 24 h. The wells were washed three times with PBS after removing these solutions. Human platelets were isolated from whole human blood containing anticoagulant sodium citrate (0.38%, w/v) as described previously(Chen, C., et al., Hydrogelation of the short self-assembling peptide 13QGK regulated by transglutaminase and use for rapid hemostasis. ACS applied materials & interfaces, 2016. 8(28): p. 17833-17841). The blood collection was approved by IBEC (18IBEC143). Briefly, platelet-rich plasma (PRP) was collected by centrifugation at 200×g for 20 min at 25° C. Then, PRP was diluted at a 1:1 ratio with PBS and subjected to second centrifugation at 800×g for 12 min at 25° C. The isolated platelets were washed three times with Tyrode's buffer (Hepes 20 mM, glucose […], BSA 1 mg/mL, NaH2PO4 3.3 mM, NaCl 137 mM, KCl 2.7 mM), followed by staining with calcein-AM (1 μg/mL) for 30 min in the dark at room temperature to stained platelets. After washing twice with PBS, the stained platelets were added into the coated wells and incubated for 1 h at 37° C. Subsequently, the supernatants were removed, and the unbound platelets were discarded by washing three times with PBS. The fluorescence of adherent platelets was measured by fluorescence microscopy.

Consider “IVFK: tetrameric self-assembling ultrashort peptide IVFK (SEQ ID NO. 1), forms nanofibrous hydrogel”, for which, in the data set with plasma, the “coagulation (clotting) time” value is “around 5 seconds”. Further, in data set [1], the “gelation time, effect of temperature” value is “faster gelation at 37 °C” and the onset of gelation entry is reported as “occurs faster with the increase of temperature”. Further, in the data set with Human platelets, the platelet adhesion entry is reported as “considerable platelet adhesion” and the “level of platelet adhesion relative to collagen (positive control)” value is “comparable to that on the surface of collagen”.
On the same counts, the results for “IVZK: tetrameric self-assembling ultrashort peptide IVZK (SEQ ID NO. 2), forms nanofibrous hydrogel (IV[Cha]K)” are “around 5 seconds”, “faster gelation at 37 °C”, “occurs faster with the increase of temperature”, “considerable platelet adhesion” and “comparable to that on the surface of collagen”.
As to “bovine serum albumin [BSA, reference compound]”, the platelet adhesion result in the data set on Human platelets was “little platelet adhesion”.

(Values after patent publication US20240261465A1, “METHOD OF STOPPING BLEEDING USING NANOFIBROUS PEPTIDE HYDROGELS AS HEMOSTASIS AGENT” (KING ABDULLAH UNIVERSITY OF SCIENCE AND TECHNOLOGY, priority 2021, published 2024).)
